Assay results as given in patent US9815815B2, “Non-selective kinase inhibitors” (GILEAD SCIENCES, INC., priority 2013, dated 2017).
Marks after values point to notes of the source that are not given here.

Key:
rat MCT+PN model = test: Telemetry study of PA pressure in the rat MCT+PN model; type: in vivo; conditions: by inhalation
Description: Efficacy study in the rat MCT+PN model. Pneumonectomy and implantation of a TRM53P telemetry monitor in the pulmonary artery (Telemetry Research, New Zealand and ADlnstruments, Colorado) was carried out in rats. Two weeks after MCT, PK10453 (Structure 2) was administered three times daily for 1 week. […] Sampling of PA pressure was performed 5 min before each morning dose in ambulatory animals in room air (estimated atmospheric pressure 716 mm Hg based on elevation of animal facility). […] Telemetry data was obtained for 10 min daily before each morning dose for this protocol.

[1] = Body weight of treated subjects; type: in vivo, rat; conditions: treated vs. vehicle groups
[2] = Two-chamber plethysmography in the rat MCT+PN model; type: in vivo; parameters: SRaw: unit not given beside the values
Description: Plethysmography. Plethysmography was performed with an EMKA dual chamber plethysmograph and IOX software. Parameters measured included breathing frequency, tidal volume, minute ventilation, peak inspiratory and expiratory flow, and airway resistance (SRaw). Animals were acclimatized to the plethysmograph for three days prior to first data acquisition. Measurements were made prior to the first dose of drug and at the end of the study.

[3] = Pharmacokinetic study, lung and plasma levels after inhalation or IV; type: in vivo, rat
Description: Pharmacokinetic studies. PK10453 (Structure 2) was administered intravenously or by inhalation to animals, which were then euthanized at time 0, 10, 20, and 60 min (n=3 each time point). Blood samples were taken by cardiac puncture, and the lungs excised. The lungs were homogenized and PK10453 (Structure 2) extracted with a 1:3 mixture of acetonitrile:methanol. Similarly, plasma was extracted with a 1:3 mixture of acetonitrile:methanol. Drug was assayed by LC MS/MS (PharmOptima Inc., Portage Mich.). First order exponential curves were fit to the data with Excel. AUC was determined with the trapezoidal method of integration.
For the pharmacokinetic study, the concentration of PK10453 (Structure 2) in lung when administered by inhalation was compared to the concentration achieved with IV administration. As described in Morén “Aerosols in medicine : principles, diagnosis, and therapy.” Amsterdam; New York: Elsevier. (1993) and Phalen et al., “Inhalation exposure methodology.” Environ Health Perspect 56:23-34 (1984)), it is possible to estimate the pharmacokinetic advantage of inhalation relative to intravenous administration, Rd, by comparing the AUC of a plot of the drug concentration as a function of time following respiratory and IV administration: Rd=[(AUClung/AUCplasma)respiratory]/[(AUClung/AUCplasma)IV]

rat MCT model = conditions: 8 min inhalation 3x/day, two weeks
Description: At the end of the study RVSP pressure was measured; lung and heart fixed in formalin. For measurement of RVSP animals were sedated with isoflurane, intubated via a tracheostomy, and ventilated with a TOPOVENT pressure regulated ventilator (peak inspiratory pressure 18 cm H2O, PEEP 5 cm). After sternotomy, a Scisense high fidelity catheter inserted via the RV apex.
Histology and morphometric analysis. At the end of the study, the heart and lungs were removed from ventilated animals under general anesthesia. Heparinized saline was infused under pressure through the main pulmonary artery. […] The heart was removed, and the RV free wall, interventricular septum and LV free wall dissected and weighed. Buffered formalin (10%) was infused under pressure both through the pulmonary artery and the trachea. Morphometric analysis was performed on H&E stained formalin fixed tissue sectioned at 8 μm. The media area and lumen area of pulmonary arterioles were measured with Image J software by a technician blinded to treatment group. Measurements were made on 20 pulmonary arterioles per section. The ratio of the lumen area to the total media area was determined This ratio normalizes the variation in total pulmonary arteriole area. […] Briefly, pre-capillary arterioles were assigned grade 0 for no evidence of neointimal lesions, grade 1 for less than 50% luminal occlusion, and grade 2 for greater than 50% occlusion.

[4] = test system: PDGFAA stimulated phosphorylation of ERK1 and ERK2; test: PDGFAA stimulated phosphorylation of ERK1 and ERK2 in human fetal lung fibroblasts; type: cell-based; conditions: 1 uM
[5] = test system: PDGFBB stimulated phosphorylation of ERK1 and ERK2; test: PDGFBB stimulated phosphorylation of ERK1 and ERK2 in human fetal lung fibroblasts; type: cell-based
AKT = test: NanoPro immunoassay pAKT/AKT in lung extracts, MCT+PN model; type: in vivo, rat
PDGFRalpha = PDGFRalpha (Homo sapiens, UniProt P16234); test: biochemical
Description: (§1) In vitro kinase assay. A Z-lyte kinase assay was performed to determine the inhibition of PDGFRalpha and PDGFRbeta mediated phosphorylation by PK10453 (Structure 2). Ten point titration curves were modeled to calculate the IC50 (Invitrogen Select Screen®).

PDGFRbeta = PDGFRbeta (Homo sapiens, UniProt P09619); test: biochemical
Description: as §1

PDGFRalpha, sequence (P16234 24-1089): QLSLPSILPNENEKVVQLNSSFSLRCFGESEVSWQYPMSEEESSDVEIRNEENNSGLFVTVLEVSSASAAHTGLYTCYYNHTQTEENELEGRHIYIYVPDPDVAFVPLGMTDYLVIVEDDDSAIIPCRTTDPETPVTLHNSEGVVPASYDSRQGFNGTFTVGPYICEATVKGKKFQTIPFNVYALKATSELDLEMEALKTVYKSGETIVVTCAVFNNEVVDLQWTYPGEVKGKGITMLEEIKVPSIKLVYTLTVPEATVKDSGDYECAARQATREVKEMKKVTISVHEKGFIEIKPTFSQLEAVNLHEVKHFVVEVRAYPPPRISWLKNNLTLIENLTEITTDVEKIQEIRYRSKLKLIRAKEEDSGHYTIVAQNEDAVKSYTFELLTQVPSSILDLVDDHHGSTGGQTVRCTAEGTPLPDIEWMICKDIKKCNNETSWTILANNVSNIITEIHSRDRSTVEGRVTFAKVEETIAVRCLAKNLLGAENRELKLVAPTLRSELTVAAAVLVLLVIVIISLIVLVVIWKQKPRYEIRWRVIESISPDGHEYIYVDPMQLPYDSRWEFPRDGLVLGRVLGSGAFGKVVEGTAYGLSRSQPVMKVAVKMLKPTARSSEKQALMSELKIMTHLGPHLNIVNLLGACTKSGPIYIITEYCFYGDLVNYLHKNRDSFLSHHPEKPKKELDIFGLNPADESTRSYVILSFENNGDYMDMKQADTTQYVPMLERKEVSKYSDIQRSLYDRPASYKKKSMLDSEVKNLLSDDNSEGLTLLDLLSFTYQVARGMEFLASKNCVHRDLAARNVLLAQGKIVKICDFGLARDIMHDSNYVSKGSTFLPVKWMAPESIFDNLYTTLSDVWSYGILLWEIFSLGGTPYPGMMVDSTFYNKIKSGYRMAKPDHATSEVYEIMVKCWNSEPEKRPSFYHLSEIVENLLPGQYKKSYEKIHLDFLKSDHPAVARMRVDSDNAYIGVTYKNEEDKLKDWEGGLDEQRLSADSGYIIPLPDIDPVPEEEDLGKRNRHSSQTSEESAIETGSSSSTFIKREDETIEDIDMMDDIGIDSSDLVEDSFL
PDGFRbeta, sequence (P09619 33-1106): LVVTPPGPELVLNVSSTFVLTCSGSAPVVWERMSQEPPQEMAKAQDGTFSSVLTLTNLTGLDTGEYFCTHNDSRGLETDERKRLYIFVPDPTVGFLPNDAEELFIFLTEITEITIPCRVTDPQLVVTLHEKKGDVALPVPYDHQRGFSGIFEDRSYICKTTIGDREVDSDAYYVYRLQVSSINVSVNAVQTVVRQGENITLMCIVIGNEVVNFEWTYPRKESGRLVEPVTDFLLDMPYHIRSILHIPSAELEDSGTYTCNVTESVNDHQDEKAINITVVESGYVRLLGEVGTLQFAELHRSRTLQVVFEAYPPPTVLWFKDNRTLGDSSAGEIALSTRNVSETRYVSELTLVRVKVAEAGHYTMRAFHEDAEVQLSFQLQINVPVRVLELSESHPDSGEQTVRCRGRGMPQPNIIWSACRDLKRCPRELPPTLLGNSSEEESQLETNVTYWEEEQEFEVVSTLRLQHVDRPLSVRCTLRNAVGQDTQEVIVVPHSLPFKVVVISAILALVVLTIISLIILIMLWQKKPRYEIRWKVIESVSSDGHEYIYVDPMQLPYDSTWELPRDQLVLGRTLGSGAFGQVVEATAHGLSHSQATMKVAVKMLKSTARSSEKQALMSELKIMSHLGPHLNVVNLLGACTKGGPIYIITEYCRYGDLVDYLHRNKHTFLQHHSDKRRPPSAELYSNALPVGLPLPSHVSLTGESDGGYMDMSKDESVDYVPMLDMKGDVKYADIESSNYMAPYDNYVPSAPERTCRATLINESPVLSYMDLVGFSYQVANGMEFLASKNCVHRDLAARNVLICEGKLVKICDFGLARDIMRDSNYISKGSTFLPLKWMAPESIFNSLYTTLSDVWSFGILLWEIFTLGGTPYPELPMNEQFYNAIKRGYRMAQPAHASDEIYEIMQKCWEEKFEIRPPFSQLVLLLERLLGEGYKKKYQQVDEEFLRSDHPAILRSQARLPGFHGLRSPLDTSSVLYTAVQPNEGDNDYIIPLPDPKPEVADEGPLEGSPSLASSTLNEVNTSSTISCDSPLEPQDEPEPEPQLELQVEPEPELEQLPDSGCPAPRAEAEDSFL

## COc1cc(-c2cncc(N[C@@H](C)c3cccc(NC(=O)c4cncc(C)c4)c3)n2)ccc1O [PK10453, (S)-N-(3-(1-((6-(4-hydroxy-3-methoxyphenyl)pyrazin-2yl)amino)ethyl)phenyl)-5-methylnicotinamide]
Rat MCT+PN model
  efficacy in the MCT+PN model, in words: prevented the progression of PAH
[1]
  body weight, in words: trend to a slower rate of decline in body weight
[2]; day 1, D4, mean
  MV: 223.24 mL/min
  PEF: 11.04
  PIF: 9.82
  SRaw: 39.73
  TV: 1.00 mL
  f: 224.68 breaths per minute
[2]; day 1, D8, mean
  MV: 174.68 mL/min
  PEF: 9.43
  PIF: 8.54
  SRaw: 36.01
  TV: 0.74 mL
  f: 259.13 breaths per minute
[2]; day 15, D4, mean
  MV: 176.12§
  PEF: 9.33*
  PIF: 7.82*
  SRaw: 33.09
  TV: 0.85
  f: 217.12 breaths per minute
[2]; day 15, D8, mean
  MV: 128.49
  PEF: 6.64
  PIF: 6.06
  SRaw: 49.26
  TV: 0.63
  f: 232.11 breaths per minute
[2]; inhaled, 2-wk course
  effect on lung function, in words: did not adversely affect lung function
[3]; inhalation relative to IV
  Rd = [(AUClung/AUCplasma)respiratory]/[(AUClung/AUCplasma)IV]: 44.6
[3]; lung/plasma AUC ratio
  advantage of inhaled compared to IV administration: 45 fold
Rat MCT model
  End systolic volume: 99.5 ± 10 µL
[4]
  decreasing PDGF AA stimulated ppERK1 and ppERK2 formation: equally effective
[5]; 1 uM
  PDGFBB stimulated ppERK1 formation: effective
[5]; 1 uM and 10 uM
  decreasing PDGF BB stimulated ppERK1 and ppERK2, compared to imatinib: more effective
AKT; D4, D8 vs vehicle
  pAKT(Thr308)/AKT ratio in lung extracts: not significantly different
AKT; treated vs vehicle
  pAKT(Ser473)/AKT ratio in lung extracts: significant reduction
PDGFRalpha
  IC50: 0.035 µM
PDGFRbeta
  IC50: 0.0101 µM
